Laboratory results published in patent US8841321B2, “Quinoline derivatives as antibacterial agents” (Janssen Pharmaceutica NV, priority 2005, dated 2014).
≈ marks a conversion by molar mass, not a printed value.

What was measured:
[1] = tested on: SPN 6305 (Streptococcus pneumoniae (ATCC6305)); assay: Microtitre plate assay, IC90 determination; type: cell-based; settings: for IC90 (μg/ml) SPN 6305: Streptococcus pneumoniae (ATCC6305); for IC90: Streptococcus pneumoniae, ATCC6305, Streptococcus pneumoniae (ATCC6305), read-out: IC90 (μg/ml) SPN 6305
In short: (§1)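 Growth-inhibition endpoint: resazurin added 3 h after inoculation, plates incubated overnight, fluorescence at 530/590 nm after 24 h at 37 °C. Inocula of roughly 10–60 CFU per well in Mueller-Hinton medium; compounds titrated five-fold. IC90 reported as μg/ml.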

[2] = tested on: STA 29213 (Staphylococcus aureus (ATCC29213)); assay: Microtitre plate assay, IC90 determination; type: cell-based; settings: for IC90 (μg/ml) STA 29213: Staphylococcus aureus (ATCC29213); for IC90: Staphylococcus aureus, ATCC29213, Staphylococcus aureus (ATCC29213), read-out: IC90 (μg/ml) STA 29213
In short: as §1

[3] = tested on: BSU 43639 (Bacillus subtilis (ATCC43639)); assay: Microtitre plate assay, IC90 determination; type: cell-based; settings: Bacillus subtilis (ATCC43639)
[4] = tested on: EFA 29212 (Enterococcus faecalis (ATCC29212)); assay: Microtitre plate assay, IC90 determination; type: cell-based; settings: for IC90 (μg/ml) EFA 29212: Enterococcus faecalis (ATCC29212); for IC90: Enterococcus faecalis, ATCC29212, Enterococcus faecalis (ATCC29212), read-out: IC90 (μg/ml) EFA 29212
[5] = tested on: LMO 49594 (Listeria monocytogenes (ATCC49594)); assay: Microtitre plate assay, IC90 determination; type: cell-based; settings: Listeria monocytogenes (ATCC49594)
[6] = tested on: PAE 27853 (Pseudomonas aeruginosa (ATCC27853)); assay: Microtitre plate assay, IC90 determination; type: cell-based; settings: for IC90 (μg/ml) PAE 27853: Pseudomonas aeruginosa (ATCC27853); for IC90: Pseudomonas aeruginosa, ATCC27853, Pseudomonas aeruginosa (ATCC27853), read-out: IC90 (μg/ml) PAE 27853
[7] = tested on: SPY 8668 (Streptococcus pyogens (ATCC8668)); assay: Microtitre plate assay, IC90 determination; type: cell-based; settings: for IC90: Streptococcus, ATCC8668, Streptococcus pyogens (ATCC8668), read-out: IC90 (μg/ml) SPY 8668; for IC90 (μg/ml) SPY 8668: Streptococcus pyogens (ATCC8668)
[8] = tested on: STA RMETH (methicilline resistant Staphylococcus aureus (MRSA), a clinical isolate from the University of Antwerp); assay: Microtitre plate assay, IC90 determination; type: cell-based; settings: for IC90: Staphylococcus aureus, MRSA, read-out: IC90 (μg/ml) STA RMETH
[9] = tested on: STA 25923 (Staphylococcus aureus (ATCC25923)); assay: Microtitre plate assay, IC90 determination; type: cell-based; settings: Staphylococcus aureus (ATCC25923)

Row | Structure (SMILES) | IC90 (μg/ml) SPN 6305 [1] [µg/mL] | IC90 (μg/ml) STA 29213 [2] [µg/mL] | melting point [°C] | IC90 (μg/ml) EFA 29212 [4] [µg/mL] | IC90 (μg/ml) PAE 27853 [6] [µg/mL] | IC90 (μg/ml) STA RMETH [8] [µg/mL] | IC90 (μg/ml) SPY 8668 [7] [µg/mL] | other results
1 | COc1ccc2cc(C(O)(CCCCN(C)C)C(c3ccccc3)c3cc4cc(Br)ccc4nc3OC)ccc2c1 (single isomer, unassigned) [Compound 5] | 2.4 (≈ 3.91 µM) | 1.9 (≈ 3.1 µM) | 96 | 1.9 (≈ 3.1 µM) | 1.9 (≈ 3.1 µM) | 1.9 (≈ 3.1 µM) |  | IC90 (μg/ml) BSU 43639 [3]: 1.9 µg/mL (≈ 3.1 µM); IC90 (μg/ml) LMO 49594 [5]: 1.9 µg/mL (≈ 3.1 µM); IC90 [7]: 1.5 µg/mL (≈ 2.44 µM)
2 | COc1nc2ccc(Br)cc2cc1C(c1ccccc1)C(O)(CCCCN(C)C)c1ccc2c(c1)OCO2 (stereo not shown) [Compound 9] | 11.5 (≈ 19.9 µM) | 9.1 (≈ 15.8 µM) | 98 |  |  |  |  | 
3 | COc1nc2ccc(Br)cc2cc1C(c1ccccc1)C(O)(CCCCN(C)C)c1cc(F)cc(F)c1 (stereo not shown) [Compound 11] |  | 1.8 (≈ 3.16 µM) | 157 |  |  |  |  | IC90 [1]: 9 µg/mL (≈ 15.8 µM); IC90 [4]: 9 µg/mL (≈ 15.8 µM); IC90 [6]: 9 µg/mL (≈ 15.8 µM); IC90 [7]: 9 µg/mL (≈ 15.8 µM); IC90 [8]: 11.4 µg/mL (≈ 20 µM)
4 | COc1nc2ccc(Br)cc2cc1C(c1ccccc1)C(O)(CCCCN(C)C)c1cc(F)ccc1F (stereo not shown) [Compound 13] | 25.4 (≈ 44.6 µM) |  | 166 |  |  |  |  | 
5 | COc1nc2ccc(Br)cc2cc1C(c1ccccc1)C(O)(CCCCN(C)C)c1cccnc1 (stereo not shown) [Compound 15] | 53.5 (≈ 100 µM) | 53.5 (≈ 100 µM) | 150 |  |  |  |  | 
6 | COc1nc2ccc(Br)cc2cc1C(c1ccccc1)C(O)(CCCCN(C)C)c1ccc2ccccc2c1 (stereo not shown) [Compound 17] | 11.6 (≈ 19.9 µM) | 9.3 (≈ 15.9 µM) | 170 | 5.2 (≈ 8.91 µM) | 2.3 (≈ 3.94 µM) | 10.4 (≈ 17.8 µM) | 4.6 (≈ 7.88 µM) | IC90 (μg/ml) BSU 43639 [3]: 5.2 µg/mL (≈ 8.91 µM); IC90 (μg/ml) LMO 49594 [5]: 5.8 µg/mL (≈ 9.94 µM); IC90 (μg/ml) STA 25923 [9]: 2.3 µg/mL (≈ 3.94 µM)
7 | COc1nc2ccc(Br)cc2cc1C(c1ccccc1)C(O)(CCCCN(C)C)c1ccc2ccccc2c1 (stereo not shown) [Compound 22] | 58.4 (≈ 100 µM) | 9.3 (≈ 15.9 µM) | 166 | 4.1 (≈ 7.03 µM) | 4.1 (≈ 7.03 µM) | 58.4 (≈ 100 µM) | 46.4 (≈ 79.5 µM) | IC90 (μg/ml) BSU 43639 [3]: 58.4 µg/mL (≈ 100 µM); IC90 (μg/ml) LMO 49594 [5]: 11.6 µg/mL (≈ 19.9 µM); IC90 (μg/ml) STA 25923 [9]: 46.4 µg/mL (≈ 79.5 µM)
8 | COc1ccc2cc(C(O)(CCCCN(C)C)C(c3ccccc3)c3cc4c(Br)cccc4nc3OC)ccc2c1 (stereo not shown) [Compound 26] | 4.3 (≈ 7.01 µM) | 1.9 (≈ 3.1 µM) | 164 | 1.9 (≈ 3.1 µM) | 1.9 (≈ 3.1 µM) | 10.9 (≈ 17.8 µM) | 1.9 (≈ 3.1 µM) | 
9 | COc1nc2cccc(Br)c2cc1C(c1ccccc1)C(O)(CCCCN(C)C)c1ccc2ccccc2c1 (stereo not shown) [Compound 28] | 58.4 (≈ 100 µM) | 1.9 (≈ 3.26 µM) | 170 |  |  | 9.3 (≈ 15.9 µM) |  | 
10 | COc1ccc2cc(C(O)(CCCCN(C)C)C(c3ccccc3)c3cc4ccc(Br)cc4nc3OC)ccc2c1 (stereo not shown) [Compound 30] | 21.8 (≈ 35.5 µM) | 9.7 (≈ 15.8 µM) | 160 |  |  |  |  | 
11 | COc1ccc2cc(C(O)(CCCCN(C)C)C(c3ccccc3)c3cc4ccccc4nc3OC)ccc2c1 (stereo not shown) [Compound 34] | 1.9 (≈ 3.55 µM) | 3.8 (≈ 7.11 µM) | 179 | 8.5 (≈ 15.9 µM) | 2.7 (≈ 5.05 µM) | 10.7 (≈ 20 µM) | 8.5 (≈ 15.9 µM) | 
12 | COc1nc2ccccc2cc1C(c1ccccc1)C(O)(CCCCN(C)C)c1ccc2ccccc2c1 (stereo not shown) [Compound 36] | 9.0 (≈ 17.8 µM) | 8.0 (≈ 15.9 µM) | 105 |  |  |  |  | 
13 | COc1nc2ccc(-c3ccco3)cc2cc1C(c1ccccc1)C(O)(CCCCN(C)C)c1ccc2ccccc2c1 (stereo not shown) [Compound 38] | 11.4 (≈ 20 µM) | 4.5 (≈ 7.88 µM) | 182 |  |  | 2.3 (≈ 4.03 µM) |  | IC90 [4]: 7.2 µg/mL (≈ 12.6 µM); IC90 [6]: 9.1 µg/mL (≈ 15.9 µM); IC90 [7]: 9.1 µg/mL (≈ 15.9 µM)
14 | COc1nc2ccc(-c3cccnc3)cc2cc1C(c1ccccc1)C(O)(CCCCN(C)C)c1ccccc1 (stereo not shown) [Compound 42] |  |  | 203 |  |  |  |  | IC90 [1]: 53.2 µg/mL (≈ 100 µM)
15 | CCN(CC)CCCC(O)(c1ccc2ccccc2c1)C(c1ccccc1)c1cc2cc(Br)ccc2nc1OC (stereo not shown) [Compound 52] | 2.4 (≈ 4.02 µM) | 15.0 (≈ 25.1 µM) |  | 47.5 (≈ 79.5 µM) | 11.9 (≈ 19.9 µM) | 15.0 (≈ 25.1 µM) | 11.9 (≈ 19.9 µM) | IC90 (μg/ml) BSU 43639 [3]: 15.0 µg/mL (≈ 25.1 µM); IC90 (μg/ml) LMO 49594 [5]: 15.0 µg/mL (≈ 25.1 µM); IC90 (μg/ml) STA 25923 [9]: 15.0 µg/mL (≈ 25.1 µM)
16 | CNCCCCC(O)(c1ccccc1)C(c1ccccc1)c1cc2cc(Br)ccc2nc1OC (stereo not shown) [Compound 53] |  |  | 121 |  |  |  |  | IC90 [1]: 0.41 µg/mL (≈ 0.789 µM); IC90 [2]: 1.64 µg/mL (≈ 3.16 µM); IC90 [4]: 1.64 µg/mL (≈ 3.16 µM); IC90 [6]: 8.23 µg/mL (≈ 15.8 µM); IC90 [7]: 1.64 µg/mL (≈ 3.16 µM); IC90 [8]: 9.2 µg/mL (≈ 17.7 µM)
17 | COc1nc2ccc(CO)cc2cc1C(c1ccccc1)C(O)(CCCCN(C)C)c1ccc2ccccc2c1 (stereo not shown) [Compound 55] |  |  | 174 |  |  |  |  | IC90 [1]: 10.7 µg/mL (≈ 20 µM); IC90 [2]: 8.47 µg/mL (≈ 15.8 µM)
18 | CNCCCC(O)(c1ccc(F)cc1)C(c1ccccc1)c1cc2cc(Br)ccc2nc1OC (stereo not shown) [Compound 68] | 1.9 (≈ 3.63 µM) | 8.3 (≈ 15.9 µM) | 188 | 18.6 (≈ 35.5 µM) | 8.3 (≈ 15.9 µM) |  | 1.7 (≈ 3.25 µM) | 
19 | CCN(CC)CCCCC(O)(CCc1cccc2ccccc12)C(c1ccccc1)c1cc2cc(Br)ccc2nc1OC (stereo not shown) [Compound 72] | 1.61 (≈ 2.52 µM) | 2.02 (≈ 3.16 µM) | 138 |  |  | 2.55 (≈ 3.99 µM) |  | 
